This note sets out measurements from patent publication US20090149494A1, “THERAPEUTIC USE OF IMIDAZO[1,2-a]PYRIDINE-2-CARBOXAMIDE DERIVATIVES” (SANOFI-AVENTIS, priority 2006, published 2009).

Experiment [1] concerns the target T1, murine Nurr1 receptor (Mus musculus, UniProt Q06219).
T1 construct: endogenously expressing the murine Nurr1 receptor; host or cells: Neuro-2A (N2A) mouse neuroblastoma cells stably transfected with 8NBRE-luciferase
Kind of experiment: In vitro activity on N2A cells (NBRE-luciferase reporter). The format is cell-based. The note with it: N2A-8NBRE-luciferase cells, 24 hours incubation. On the procedure: The tests consisted in evaluating the in vitro activity of the compounds of the invention on a cell line (N2A) endogenously expressing the murine Nurr1 receptor and stably transfected with the NOT binding response element (NBRE) coupled to the luciferase reporter gene. The EC50 values are between 0.01 and 1000 nM. The tests were performed according to the procedure described hereinbelow.
The cell line Neuro-2A is obtained from a standard commercial source (ATCC). The clone Neuro-2A was obtained from a spontaneous tumor originating from a strain of albino mice A by R. J Klebe et al. This line Neuro-2A is then stably transfected with 8NBRE-luciferase. The N2A-8NBRE cells are cultured to the point of confluence in 75 cm^2 culture flasks containing DMEM supplemented with 10% fetal calf serum, 4.5 g/L of glucose and 0.4 mg/ml of geneticin. After culturing for one week, the cells are recovered with 0.25% trypsin for 30 seconds and then resuspended in DMEM without phenol red, containing 4.5 g/L of glucose and 10% Hyclone defatted serum, and placed in white, transparent-based 96-well plates. The cells are deposited at a rate of 60 000 per well in 75 μL for 24 hours before adding the products. The products are applied in 25 μL and incubated for a further 24 hours. […] The plates are then measured in a microplate luminescence counter, after having been sealed with an adhesive film. […]
(In general: In a reporter assay the amount or activity of a reporter protein is the signal.)

The test system of experiment [2] is human NOT receptor. Kind of experiment: Binding to the human NOT receptor by SPR (Biacore). The note with it: immobilized GST-NOT (NOT-FL) and His-Thr-NOT 329-598, 3.75 to 0.1 μM, 4° C. On the procedure:
The direct binding between compounds of the invention and the human NOT receptor was evaluated using the SPR (surface plasmon resonance) technique. In this test, the protein is immobilized covalently on the matrix and the test molecule is injected into the chamber containing the sensor chip. The signal is directly proportional to the amount of product bound to the protein. The binding tests were performed in a Biacore S51 machine (Biacore Inc., Piscataway N.J.). The entire GST-NOT protein (NOT-FL) was supplied by Invitrogen (PV3265). The domain for binding to the NOT ligand (His-Thr-NOT 329-598) was expressed and purified as described in Nature 423, 555-560. The two proteins, diluted to a concentration of 20 μg/ml in pH 5.0 acetate buffer containing 5 mM of DTT, were immobilized on a surface of carboxymethyl 5′ dextran (CM5 sensor chip, Biacore Inc.) via amine coupling according to the protocol recommended by Biacore, eluting with an HBS-N buffer (10 mM HEPES, 0.15 M NaCl, 3 mM EDTA, pH 7.4). Approximately 10 000-15 000 resonance units (R^U) of the proteins are captured on the surface of the sensor chip CM5. […] The dissociation was recorded for 5 minutes without any other surface regeneration procedure. […]
Background: Surface plasmon resonance follows binding to a sensor surface in real time, without labels.

T1 sequence (Q06219 whole entry): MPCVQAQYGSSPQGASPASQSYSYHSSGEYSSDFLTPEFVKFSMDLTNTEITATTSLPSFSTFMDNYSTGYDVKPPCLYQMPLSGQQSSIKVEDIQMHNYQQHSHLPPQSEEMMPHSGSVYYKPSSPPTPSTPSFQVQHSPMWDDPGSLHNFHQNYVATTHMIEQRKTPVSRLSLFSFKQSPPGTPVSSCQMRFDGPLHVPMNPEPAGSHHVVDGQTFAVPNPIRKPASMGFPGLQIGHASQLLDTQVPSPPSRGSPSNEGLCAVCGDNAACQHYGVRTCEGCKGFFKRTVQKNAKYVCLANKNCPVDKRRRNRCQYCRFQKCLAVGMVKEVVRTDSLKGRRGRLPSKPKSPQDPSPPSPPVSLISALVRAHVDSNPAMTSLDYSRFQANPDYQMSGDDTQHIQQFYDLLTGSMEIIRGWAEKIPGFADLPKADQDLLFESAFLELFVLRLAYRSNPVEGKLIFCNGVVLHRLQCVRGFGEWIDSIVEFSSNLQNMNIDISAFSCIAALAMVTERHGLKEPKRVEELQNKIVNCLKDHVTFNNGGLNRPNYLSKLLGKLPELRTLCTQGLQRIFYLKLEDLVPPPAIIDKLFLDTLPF

Usually EC50 stands for the midpoint of the concentration-response curve. Low readings indicate a more potent agent, high ones a less potent agent. With `O=C(Nc1ccc(F)cc1)c1cn2cc(Cl)ccc2n1` [compound 2], the EC50 in experiment [1] worked out at 17 nM. This counts as double-digit nanomolar.
In the case of `O=C(Nc1ccccc1)c1cn2ccccc2n1` [compound 1], the EC50 in experiment [1] was 5.5 nM. Also, the “affinity (classified by maximum binding level and kinetic parameters of binding)” value in experiment [2] is “moderate affinity”.
